Test results reported in the CheMixHub viscosity set.
± gives the uncertainty stated by the source.

Assay: xn = mol fraction of the nth substance listed

COCCOCCO + CCOC(C)(C)C
viscosity [mPa·s], 101 kPa
Settings | 293.15 K | 298.15 K | 303.15 K
x2 = 0.0501 | 3.519 ± 0.051 | 3.231 ± 0.047 | 2.865 ± 0.042
x2 = 0.1 | 3.158 ± 0.045 | 2.906 ± 0.042 | 2.589 ± 0.037
x2 = 0.1459 | 2.847 ± 0.04 | 2.627 ± 0.037 | 2.351 ± 0.034
x2 = 0.1998 | 2.518 ± 0.035 | 2.328 ± 0.033 | 2.097 ± 0.029
x2 = 0.2556 | 2.218 ± 0.03 | 2.06 ± 0.028 | 1.862 ± 0.026
x2 = 0.3031 | 1.991 ± 0.027 | 1.855 ± 0.025 | 1.683 ± 0.023
x2 = 0.3521 | 1.784 ± 0.024 | 1.669 ± 0.022 | 1.52 ± 0.021
x2 = 0.4004 | 1.605 ± 0.021 | 1.506 ± 0.02 | 1.377 ± 0.018
x2 = 0.4511 | 1.438 ± 0.019 | 1.355 ± 0.018 | 1.244 ± 0.017
x2 = 0.4998 | 1.299 ± 0.017 | 1.227 ± 0.016 | 1.13 ± 0.015
x2 = 0.5628 | 1.142 ± 0.015 | 1.082 ± 0.014 | 1.001 ± 0.013
x2 = 0.5997 | 1.062 ± 0.014 | 1.007 ± 0.013 | 0.934 ± 0.012
x2 = 0.6621 | 0.942 ± 0.012 | 0.894 ± 0.012 | 0.833 ± 0.011
x2 = 0.6997 | 0.879 ± 0.011 | 0.834 ± 0.011 | 0.779 ± 0.01
x2 = 0.7411 | 0.816 ± 0.011 | 0.773 ± 0.01 | 0.725 ± 0.01
x2 = 0.7995 | 0.736 ± 0.01 | 0.697 ± 0.009 | 0.657 ± 0.009
x2 = 0.8401 | 0.687 ± 0.009 | 0.651 ± 0.009 | 0.616 ± 0.008
x2 = 0.8998 | 0.623 ± 0.008 | 0.591 ± 0.008 | 0.56 ± 0.008
x2 = 0.9498 | 0.575 ± 0.008 | 0.545 ± 0.007 | 0.518 ± 0.007

CC(C)[C@@H]1CC[C@@H](C)C[C@H]1O + CCCCO
Settings | viscosity [mPa·s]
298.15 K, 101.33 kPa, x1 = 0.5 | 18.77

NC(N)=O + CN(C)C=O
101 kPa
Settings | viscosity [mPa·s]
293.15 K, x1 = 0.00259 | 0.8641 ± 0.0059
293.15 K, x1 = 0.004089 | 0.8696 ± 0.0059
293.15 K, x1 = 0.005542 | 0.8749 ± 0.006
293.15 K, x1 = 0.007625 | 0.8829 ± 0.006
293.15 K, x1 = 0.008542 | 0.8861 ± 0.006
293.15 K, x1 = 0.009703 | 0.8909 ± 0.0061
293.15 K, x1 = 0.01132 | 0.8964 ± 0.0061
293.15 K, x1 = 0.01367 | 0.906 ± 0.0061
298.15 K, x1 = 0.002771 | 0.8095 ± 0.0056
298.15 K, x1 = 0.00599 | 0.8163 ± 0.0056
298.15 K, x1 = 0.0088 | 0.8219 ± 0.0056
298.15 K, x1 = 0.01098 | 0.8295 ± 0.0057
298.15 K, x1 = 0.01142 | 0.8371 ± 0.0057
298.15 K, x1 = 0.01232 | 0.8421 ± 0.0058
298.15 K, x1 = 0.01349 | 0.8468 ± 0.0058
298.15 K, x1 = 0.0148 | 0.8557 ± 0.0058
303.15 K, x1 = 0.001637 | 0.7596 ± 0.0052
303.15 K, x1 = 0.003093 | 0.7641 ± 0.0053
303.15 K, x1 = 0.004755 | 0.7693 ± 0.0053
303.15 K, x1 = 0.005964 | 0.7728 ± 0.0053
303.15 K, x1 = 0.007418 | 0.7775 ± 0.0054
303.15 K, x1 = 0.008306 | 0.7799 ± 0.0054
303.15 K, x1 = 0.01015 | 0.7857 ± 0.0054
303.15 K, x1 = 0.01168 | 0.7908 ± 0.0054
308.15 K, x1 = 0.001989 | 0.7171 ± 0.005
308.15 K, x1 = 0.003566 | 0.7214 ± 0.005
308.15 K, x1 = 0.005107 | 0.7257 ± 0.005
308.15 K, x1 = 0.006768 | 0.73 ± 0.0051
308.15 K, x1 = 0.008236 | 0.7345 ± 0.0051
308.15 K, x1 = 0.009277 | 0.7372 ± 0.0051
308.15 K, x1 = 0.01039 | 0.7403 ± 0.0051
308.15 K, x1 = 0.01098 | 0.7421 ± 0.0051

CCC#N + CC(=O)N(C)C
303.15 K, 101.33 kPa
Settings | viscosity [mPa·s]
x1 = 0.0953 | 0.8264 ± 0.0054
x1 = 0.2 | 0.7648 ± 0.0051
x1 = 0.3021 | 0.7092 ± 0.0048
x1 = 0.3926 | 0.6613 ± 0.0046
x1 = 0.4985 | 0.6082 ± 0.0044
x1 = 0.595 | 0.5621 ± 0.0042
x1 = 0.699 | 0.5131 ± 0.004
x1 = 0.795 | 0.4684 ± 0.0038
x1 = 0.9013 | 0.425 ± 0.0036

CCCCCCCCCCCC + COC(=O)OC
298.15 K, 101.3 kPa
Settings | viscosity [mPa·s]
x2 = 0.0451 | 1.266 ± 0.017
x2 = 0.0943 | 1.206 ± 0.016
x2 = 0.1375 | 1.157 ± 0.015
x2 = 0.225 | 1.079 ± 0.014
x2 = 0.3467 | 0.977 ± 0.013
x2 = 0.4784 | 0.877 ± 0.012
x2 = 0.6212 | 0.775 ± 0.01
x2 = 0.7364 | 0.697 ± 0.009
x2 = 0.8599 | 0.633 ± 0.008
x2 = 0.9441 | 0.602 ± 0.008

Cc1ccccc1C + Cc1ccc(C)cc1
101.3 kPa
Settings | viscosity [mPa·s]
298.15 K, x1 = 0.0748 | 0.6114 ± 0.0052
298.15 K, x1 = 0.1866 | 0.6242 ± 0.0053
298.15 K, x1 = 0.3032 | 0.641 ± 0.0054
298.15 K, x1 = 0.4147 | 0.6549 ± 0.0055
298.15 K, x1 = 0.5702 | 0.6779 ± 0.0057
298.15 K, x1 = 0.6823 | 0.6995 ± 0.0058
298.15 K, x1 = 0.8109 | 0.7176 ± 0.0059
298.15 K, x1 = 0.9402 | 0.7417 ± 0.0061
303.15 K, x1 = 0.0902 | 0.5764 ± 0.005
303.15 K, x1 = 0.2065 | 0.5904 ± 0.0051
303.15 K, x1 = 0.3178 | 0.604 ± 0.0052
303.15 K, x1 = 0.4339 | 0.6204 ± 0.0053
303.15 K, x1 = 0.4577 | 0.6237 ± 0.0053
303.15 K, x1 = 0.5832 | 0.642 ± 0.0054
303.15 K, x1 = 0.6243 | 0.6474 ± 0.0055
303.15 K, x1 = 0.7864 | 0.6729 ± 0.0056
303.15 K, x1 = 0.8933 | 0.6889 ± 0.0057

CC(C)[C@@H]1CC[C@@H](C)C[C@H]1O + CCCCCCCCCCO
Settings | viscosity [mPa·s]
298.15 K, 101.33 kPa, x1 = 0.5 | 21.24

CCCCCCCCCCO + CCOC(C)=O
viscosity [mPa·s], 101.33 kPa
Settings | x2 = 0.1664 | x2 = 0.3099 | x2 = 0.4348 | x2 = 0.545 | x2 = 0.6423 | x2 = 0.7293 | x2 = 0.8073 | x2 = 0.8778 | x2 = 0.9418
298.15 K | 6.2 ± 0.66 | 3.758 ± 0.4 | 2.442 ± 0.26 | 1.698 ± 0.18 | 1.238 ± 0.14 | 0.936 ± 0.1 | 0.809 ± 0.089 | 0.657 ± 0.073 | 0.521 ± 0.058
303.15 K | 5.263 ± 0.56 | 3.279 ± 0.35 | 2.171 ± 0.23 | 1.533 ± 0.17 | 1.235 ± 0.14 | 0.864 ± 0.095 | 0.719 ± 0.08 | 0.613 ± 0.068 | 0.497 ± 0.056
308.15 K | 4.52 ± 0.49 | 2.876 ± 0.31 | 1.935 ± 0.21 | 1.384 ± 0.15 | 1.032 ± 0.11 | 0.796 ± 0.088 | 0.647 ± 0.072 | 0.583 ± 0.065 | 0.477 ± 0.054
